One assay has as its system annual morning glory. The assay is described as follows: Preemergent control of plant species. In kind it is in vivo, Ipomoea spp. As to conditions: Ipomoea, pre-emergence, 336 h; 0.25 lb/acre; read-out: percent preemergent control. A digest of the protocol:
(§1)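 Seeds sown in agricultural soil in greenhouse beds, then aqueous-emulsion compositions applied uniformly to the bed surface at listed rates. Beds kept two weeks under greenhouse growth conditions with watering. Control expressed as growth reduction versus water-treated beds of the same species.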

A further assay relates to cotton. The assay is described as follows: Preemergent control of plant species. The format is in vivo, Gossypium spp. As to conditions: Gossypium hirsutum, pre-emergence, 336 h; 0.25 lb/acre; read-out: percent preemergent control. In a few lines:
as §1

Another assay relates to yellow foxtail. As to the kind of experiment: Preemergent control of plant species. In kind it is in vivo, Setaria lutescens. As to conditions: Setaria, pre-emergence, 336 h; 0.25 lb/acre; read-out: percent preemergent control. In a few lines:
as §1

Another assay deals with wheat. As to the kind of experiment: Preemergent control of plant species. The conditions noted are these: Triticum aestivum, pre-emergence, 336 h; 0.25 lb/acre; read-out: percent preemergent control. The format is in vivo, Triticum aestivum. A digest of the protocol:
as §1

Another assay relates to yellow nutsedge. The assay is described as follows: Preemergent control of plant species. The format is in vivo, Cyperus esculentus. The conditions noted are these: Cyperus, pre-emergence, 336 h; 0.25 lb/acre; read-out: percent preemergent control. In a few lines: as §1
The test system of another assay is barnyardgrass. The assay is described as follows: Preemergent control of plant species. The format is in vivo, Echinochloa crusgalli. The conditions noted are these: Echinochloa crus-galli, pre-emergence, 336 h; 0.25 lb/acre; read-out: percent preemergent control. A digest of the protocol: as §1
A further assay deals with sugar beet. The assay is described as follows: Preemergent control of plant species. The format is in vivo, Beta saccharifera. As to conditions: Beta vulgaris, pre-emergence, 336 h; 0.25 lb/acre; read-out: percent preemergent control. In a few lines:
as §1

The next assay relates to jimsonweed. The assay is described as follows: Preemergent control of plant species. In kind it is in vivo, Datura stramonium. As to conditions: Datura stramonium, pre-emergence, 336 h; 0.25 lb/acre; read-out: percent preemergent control. In a few lines: as §1
The test system of a further assay is johnson grass. The assay is described as follows: Preemergent control of plant species. The format is in vivo, Sorghum halepense. The conditions noted are these: Sorghum halepense, pre-emergence, 336 h; 0.25 lb/acre; read-out: percent preemergent control. In a few lines:
as §1

Another assay concerns rice. As to the kind of experiment: Preemergent control of plant species. The conditions noted are these: Oryza sativa, pre-emergence, 336 h; 0.25 lb/acre; read-out: percent preemergent control. The format is in vivo, Oryza sativa. A digest of the protocol:
as §1

The next assay concerns velvetleaf. The assay is described as follows: Preemergent control of plant species. The format is in vivo, Abutilon theophrasti. The conditions noted are these: Abutilon theophrasti, pre-emergence, 336 h; 0.25 lb/acre; read-out: percent preemergent control. In a few lines:
as §1

For another assay, the system named is corn. The assay is described as follows: Preemergent control of plant species. The format is in vivo, Zea mays. As to conditions: Zea mays, pre-emergence, 336 h; 0.25 lb/acre; read-out: percent preemergent control. In a few lines: as §1
A further assay deals with rape. The assay is described as follows: Preemergent control of plant species. The format is in vivo, Brassica napus. The conditions noted are these: Brassica napus, pre-emergence, 336 h; 0.25 lb/acre; read-out: percent preemergent control. A digest of the protocol: as §1
A further assay relates to wild oats. As to the kind of experiment: Preemergent control of plant species. The format is in vivo. As to conditions: Avena fatua, pre-emergence, 336 h; 0.25 lb/acre; read-out: percent preemergent control. As for the experimental part: The seeds of various species of plants were planted in beds of good agricultural soil in a greenhouse. A number of compositions of the present invention, generally in the nature of an aqueous emulsion, were applied at rates listed in the table so as to deposit a predetermined amount of active ingredients uniformly throughout the surface of the bed. Another seed bed was treated only with water to serve as a control. After treatment the seed beds were maintained for two weeks under greenhouse conditions conducive for good plant growth and watered as necessary. Control refers to the reduction in growth compared to the observed results of the same untreated species.

In a further assay the test system is soybean. As to the kind of experiment: Preemergent control of plant species. The format is in vivo, Glycine max. The conditions noted are these: Glycine max, pre-emergence, 336 h; 0.25 lb/acre; read-out: percent preemergent control. In a few lines: as §1
The next assay relates to sorghum. As to the kind of experiment: Preemergent control of plant species. The conditions noted are these: Sorghum, pre-emergence, 336 h; 0.25 lb/acre; read-out: percent preemergent control. The format is in vivo, Sorghum vulgare. A digest of the protocol: as §1
The test system of assay [1] is nitrification of ammonium nitrogen. As to the kind of experiment: Suppression of nitrification of ammonium nitrogen in soil. The conditions noted are these: 27° C. A digest of the protocol: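 Soil (20 g) moistened to its 1/3 bar tension value, mixed with test chemical and incubated sealed for two weeks at 27° C. Nitrate extracted with ammonium sulfate solution and measured by nitrate-specific ion electrode; value given as % NH4-N remaining.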

As to `COC(=O)c1cccc(C)c1NS(=O)(=O)c1nc2nc(OC)c(C)cn2n1` [Compound 216], the pest or weed control at 280.212 g/ha in the assay with annual morning glory turned out to be 90%; in the assay with yellow foxtail, 100%; with yellow nutsedge, 70%; in the assay with barnyardgrass it was 75%; with jimsonweed, 100%; in the assay on johnson grass it was 100%. Also, the pest or weed control at 280.212 g/ha with velvetleaf and in the assay with wild oats was 100% in each case. The plant injury at 280.212 g/ha was found to be 100% in the assay with cotton; 100% in the assay on wheat; 100% with sugar beet; 90% in the assay with rice; 100% in the assay on corn; 20% in the assay with rape. The plant injury at 280.212 g/ha in the assay on soybean stood at 70%; in the assay on sorghum, 100%.
In the case of `COC(=O)c1ccc(C)c(NS(=O)(=O)c2nc3nc(C)cc(C)n3n2)c1Br` [Compound 86, methyl 3-amino-2-bromo-4-methyl-N-(5,7-dimethyl-1,2,4-triazolo[1,5-a]pyrimidine-2-sulfonyl)benzoate], the pest or weed control at 280.212 g/ha in the assay on annual morning glory was 0%; with yellow foxtail, 0%; with yellow nutsedge, 0%; with barnyardgrass, 0%; with jimsonweed, 100%; in the assay with johnson grass it was 0%. The pest or weed control at 280.212 g/ha in the assay on velvetleaf and in the assay on wild oats was 0% in each case. Further, the plant injury at 280.212 g/ha amounted to 0% with cotton; 0% in the assay on wheat; 100% in the assay with sugar beet; 0% in the assay on rice; 0% with corn; 100% in the assay with rape. The plant injury at 280.212 g/ha in the assay with soybean was 20%; with sorghum it was 0%.
Regarding `CC(=O)N(c1c(Cl)cccc1Cl)S(=O)(=O)c1nc2nc(C)ccn2n1` [Compound 268], the pest or weed control at 280.212 g/ha in the assay with annual morning glory worked out at 90%; in the assay with yellow foxtail it was 100%; with yellow nutsedge, 100%; in the assay on jimsonweed, 100%; in the assay with johnson grass it was 80%; with velvetleaf, 100%. Besides, the pest or weed control at 280.212 g/ha with wild oats was 30%. The plant injury at 280.212 g/ha in the assay on cotton worked out at 100%; in the assay with sugar beet it was 100%; in the assay on rice, 100%; in the assay on corn it was 80%; in the assay with rape it was 100%; in the assay on soybean, 0%. Also, in the assay with sorghum, the plant injury at 280.212 g/ha turned out to be 100%. For the same molecule, the “% NH4-N Remaining After 2 Weeks Incubation” value in assay [1] (0.06 ppm) was found to be 53%; in assay [1] (0.25 ppm), 71%; in assay [1] (1 ppm), 80%; in assay [1] (4 ppm), 92%.
Consider `COC(=O)c1cccc(F)c1NS(=O)(=O)c1nc2nc(OC)c(C)cn2n1` [Compound 215], for which the pest or weed control at 280.212 g/ha in the assay on annual morning glory, in the assay on yellow foxtail, with yellow nutsedge, in the assay with barnyardgrass, with jimsonweed and in the assay on johnson grass was 100% each time. Besides, the pest or weed control at 280.212 g/ha in the assay with velvetleaf and in the assay on wild oats was 100% throughout. Further, the plant injury at 280.212 g/ha in the assay on cotton, in the assay with wheat, in the assay on sugar beet, in the assay on rice, in the assay on corn and in the assay on rape was 100% in each case. The plant injury at 280.212 g/ha in the assay on soybean and in the assay on sorghum was 100% in each case.
In the case of `Cc1cccc([N+](=O)[O-])c1NS(=O)(=O)c1nc2nccc(C)n2n1` [Compound 184], the pest or weed control at 280.212 g/ha turned out to be 80% in the assay on annual morning glory; 80% in the assay with yellow foxtail; 80% in the assay with yellow nutsedge; 0% in the assay on barnyardgrass; 98% in the assay with jimsonweed; 30% in the assay with johnson grass. Also, the pest or weed control at 280.212 g/ha with velvetleaf was 100%; with wild oats, 0%. Besides, the plant injury at 280.212 g/ha with cotton was determined as 100%; in the assay on wheat it was 0%; with sugar beet, 100%; in the assay on rice, 0%; with corn, 0%; in the assay on rape, 98%. In addition, the plant injury at 280.212 g/ha with soybean was 50%; with sorghum it was 95%.
As for `CC(=O)OCc1cccc(Cl)c1NS(=O)(=O)c1nc2nc(C)cc(C)n2n1` [Compound 94, 5,7-dimethyl-N-(2-acetoxymethyl-6-chlorophenyl)-1,2,4-triazolo[1,5-a]pyrimidine-2-sulfonamide], the pest or weed control at 280.212 g/ha with annual morning glory, with yellow foxtail, in the assay on yellow nutsedge, in the assay on barnyardgrass, in the assay with jimsonweed and in the assay on johnson grass was 0% each time. Further, the pest or weed control at 280.212 g/ha with velvetleaf and in the assay on wild oats was 0% throughout. For the same molecule, the plant injury at 280.212 g/ha came to 60% in the assay on cotton; 0% in the assay on sugar beet; 0% with rice; 0% with corn; 100% in the assay with rape; 50% in the assay with soybean. Further, in the assay on sorghum, the plant injury at 280.212 g/ha is 0%. Besides, the “% NH4-N Remaining After 2 Weeks Incubation” value turned out to be 28% in [1] (0.06 ppm), 48% in assay [1] (0.25 ppm), 56% in [1] (1 ppm) and 84% in assay [1] (4 ppm).
In the case of `Cc1ccnc2nc(S(=O)(=O)Nc3c(F)cccc3F)nn12` [Compound 185], the pest or weed control at 280.212 g/ha in the assay with annual morning glory worked out at 80%; in the assay with yellow nutsedge, 0%; in the assay on barnyardgrass, 20%; in the assay with jimsonweed, 90%; in the assay with johnson grass it was 90%; in the assay with velvetleaf it was 100%. Also, the pest or weed control at 280.212 g/ha in the assay on wild oats was 0%. The plant injury at 280.212 g/ha with cotton came out at 98%; with wheat it was 0%; with sugar beet it was 98%; in the assay on rice, 20%; in the assay on corn, 0%; in the assay with rape, 100%. In addition, the plant injury at 280.212 g/ha amounted to 70% in the assay with soybean and 90% with sorghum.
With `Cc1ccn2nc(S(=O)(=O)N(C(=O)C3CC3)c3c(F)cccc3F)nc2n1` [Compound 289], the pest or weed control at 280.212 g/ha in the assay with annual morning glory, with yellow foxtail, with yellow nutsedge, in the assay with barnyardgrass, in the assay on jimsonweed and with johnson grass was 100% each time. Moreover, the pest or weed control at 280.212 g/ha with velvetleaf and in the assay on wild oats was 100% in each case. Also, the plant injury at 280.212 g/ha in the assay on cotton came out at 100%; with wheat, 80%; with sugar beet, 100%; in the assay with corn it was 95%; in the assay on rape it was 100%; in the assay on soybean, 50%. In addition, the plant injury at 280.212 g/ha with sorghum amounted to 100%.

The values above are taken from patent US4740233A, “Substituted 1,2,4-triazolo[1,5-a]-pyrimidine-2-sulfonamides and compositions and methods of controlling undesired vegetation and suppressing the nitrification of ammonium nitrogen in soil” (The Dow Chemical Company, priority 1986, dated 1988).
